Test results from US10221171B2, “Oxathiazole thiazolium Hsp 70 inhibitors” (THE REGENTS OF THE UNIVERSITY OF CALIFORNIA, priority 2015, dated 2019).
Read-outs that look alike come from different tables or passages of the source.

Experiments:
Assay type in all cases: cell-based
MCF-7 = test: MTT cell viability assay, MCF-7; settings: Homo sapiens, MTT, 72-hour incubation, read-out: IC50/μM MCF-7
Experimental: (§1) Cells were then treated with compound at various concentrations in 0.2 mL media. After the 72-hour incubation period, cells were washed in PBS (3×100 μL), and 10 μL MTT reagent was added with 100 μL fresh media. Cells were then incubated for 4 hr in a humidified chamber at 37° C. with 5% CO2. Insoluble formazan crystals were solubilized by addition of 0.1 mL detergent solution (4 hr at room temp., dark). Resulting colored solutions were then quantified at an absorbance of 570 nm.

MDA-MB-231 = test: MTT cell viability assay, MDA-MB-231; settings: Homo sapiens
Experimental: as §1

MEF (C57BL/6) = test: MTT cell viability assay, MEF (C57BL/6); settings: Mus musculus
Experimental: as §1

[1] = MTT, 72-hour incubation, read-out: IC50/μM MEF (C57BL/6)
[2] = 72 h, read-out: IC50/μM MEF (C57BL/6), MTT, 72-hour incubation
[3] = MDA-MB-231, 72 h, 72-hour incubation

CCn1c(=O)/c(=C2\Sc3cc(F)ccc3N2C)s/c1=C\c1scc[n+]1Cc1nc(C)sc1C [JG-275]
IC50 (MCF-7; MCF7): 0.27 ± 0.03 µM
IC50 (MDA-MB-231; MDA-MB-231, 72-hour incubation): 0.3 ± 0.03 µM
IC50 (MEF (C57BL/6); [1]): 1.6 ± 0.1 µM

CCn1c(=O)/c(=C2\Sc3cc(F)ccc3N2C)s/c1=C\c1scc[n+]1Cc1ccccc1Br [JG-308]
IC50 (MCF-7; MCF7): 0.16 ± 0.02 µM
IC50 (MDA-MB-231; MDA-MB-231, 72-hour incubation): 0.19 ± 0.02 µM
IC50 (MEF (C57BL/6); [1]): 0.6 ± 0.06 µM

CCn1c(=O)/c(=C2\Sc3cc(Cl)ccc3N2C)s/c1=C\c1scc[n+]1Cc1ccc(Cl)cc1 [JG-256]
IC50 (MCF-7; MCF7): 0.72 ± 0.06 µM
IC50 (MDA-MB-231; MDA-MB-231, 72-hour incubation): 1.1 ± 0.1 µM
IC50 (MEF (C57BL/6); [1]): 2.2 ± 0.1 µM

CCn1c(=O)/c(=C2\Sc3ccc(C)cc3N2C)s/c1=C\c1scc[n+]1Cc1ccccc1C(=O)OC [JG-364]
IC50 (MCF-7; MCF7): 0.15 ± 0.01 µM
IC50 (MDA-MB-231; MDA-MB-231, 72-hour incubation): 0.11 ± 0.01 µM
IC50 (MEF (C57BL/6); [1]): 2.3 ± 0.2 µM

CCn1c(=O)/c(=C2\Sc3cc(F)ccc3N2C)s/c1=C\c1scc[n+]1[C@H](C)c1ccccc1 [JG-340]
IC50 (MCF-7; MCF7): 0.24 ± 0.03 µM
IC50 (MDA-MB-231; MDA-MB-231, 72-hour incubation): 0.38 ± 0.03 µM
IC50 (MEF (C57BL/6); [1]): 1.5 ± 0.05 µM

CCn1c(=O)/c(=C2\Sc3cc(OC)ccc3N2C)s/c1=C\c1scc[n+]1CCc1ccc(Cl)cc1 [JG-396]
IC50 (MCF-7; MCF7): 1.7 ± 0.3 µM
IC50 (MDA-MB-231; MDA-MB-231, 72-hour incubation): 0.2 ± 0.03 µM
IC50 (MEF (C57BL/6); [1]): 4 ± 0.2 µM

CCn1c(=O)/c(=C2\Sc3cc(F)ccc3N2C)s/c1=C\c1scc[n+]1Cc1ccccc1C(=O)O [JG-315]
IC50 (MCF-7; MCF7): > 20 µM
IC50 (MDA-MB-231; MDA-MB-231, 72-hour incubation): > 20 µM
IC50 (MEF (C57BL/6); [1]): > 10 µM

CCn1c(=O)/c(=C2\Sc3cc(OC)ccc3N2C)s/c1=C\c1scc[n+]1C(C)c1ccccc1 (stereo not drawn) [JG-322]
IC50 (MCF-7; MCF7): 0.14 ± 0.01 µM
IC50 (MDA-MB-231; MDA-MB-231, 72-hour incubation): 0.15 ± 0.01 µM
IC50 (MEF (C57BL/6); [1]): 1.7 ± 0.1 µM

CCn1c(=O)/c(=C2\Sc3cc(Cl)ccc3N2C)s/c1=C\c1scc[n+]1Cc1c(C)noc1C [JG-267]
IC50 (MCF-7; MCF7): > 5 µM
IC50 (MDA-MB-231; MDA-MB-231, 72-hour incubation): 10 ± 2 µM
IC50 (MEF (C57BL/6); [2]): 7.6 ± 0.3 µM

CCn1c(=O)/c(=C2\Sc3cc(C)ccc3N2C)s/c1=C\c1scc[n+]1Cc1ccccc1OC [JG-375]
IC50 (MCF-7; MCF7, 72 h): 0.071 ± 0.006 µM
IC50 (MDA-MB-231; [3]): 0.082 ± 0.01 µM
IC50 (MEF (C57BL/6); [2]): 0.96 ± 0.03 µM

CCn1c(=O)/c(=C2\Sc3cc(F)ccc3N2C)s/c1=C\c1scc[n+]1Cc1cccc(Cl)c1 [JG-272]
IC50 (MCF-7; MCF7): 0.36 ± 0.02 µM
IC50 (MDA-MB-231; MDA-MB-231, 72-hour incubation): 0.77 ± 0.1 µM
IC50 (MEF (C57BL/6); [1]): 0.62 ± 0.03 µM

CCn1c(=O)/c(=C2\Sc3cc(C(C)C)ccc3N2C)s/c1=C\c1scc[n+]1Cc1ccsc1C(=O)OC [JG-327]
IC50 (MCF-7; MCF7): 0.15 ± 0.02 µM
IC50 (MDA-MB-231; MDA-MB-231, 72-hour incubation): 0.17 ± 0.02 µM
IC50 (MEF (C57BL/6); [1]): 0.7 ± 0.03 µM

CCn1c(=O)/c(=C2\Sc3cc(C)ccc3N2C)s/c1=C\c1scc[n+]1Cc1ccccc1SC(F)(F)F [JG-373]
IC50 (MCF-7; MCF7): 0.095 ± 0.005 µM
IC50 (MDA-MB-231; MDA-MB-231, 72-hour incubation): 0.22 ± 0.03 µM
IC50 (MEF (C57BL/6); [1]): 0.44 ± 0.03 µM

CCn1c(=O)/c(=C2\Sc3cc(F)ccc3N2C)s/c1=C\c1scc[n+]1Cc1c(C)cccc1C [JG-334]
IC50 (MCF-7; MCF7): 0.32 ± 0.03 µM
IC50 (MDA-MB-231; MDA-MB-231, 72-hour incubation): 0.38 ± 0.04 µM
IC50 (MEF (C57BL/6); [1]): 1.4 ± 0.1 µM

CCn1c(=O)/c(=C2\Sc3cc(OC)ccc3N2C)s/c1=C\c1scc[n+]1Cc1ccccc1SC(F)(F)F [JG-350]
IC50 (MCF-7; MCF7): 0.059 ± 0.007 µM
IC50 (MDA-MB-231; MDA-MB-231, 72-hour incubation): 0.1 ± 0.01 µM
IC50 (MEF (C57BL/6); [1]): 1.2 ± 0.1 µM

CCn1c(=O)/c(=C2\Sc3cc(Cl)ccc3N2C)s/c1=C\c1scc[n+]1Cc1ccccc1C(=O)OC [JG-331]
IC50 (MCF-7; MCF7, 72 h): 0.17 ± 0.02 µM
IC50 (MDA-MB-231; [3]): 0.17 ± 0.02 µM
IC50 (MEF (C57BL/6); [2]): 2.9 ± 0.1 µM

CCn1c(=O)/c(=C2\Sc3cc(Cl)ccc3N2C)s/c1=C\c1scc[n+]1Cc1ccccc1OC(C)=O [JG-247]
IC50 (MCF-7; MCF7): 1.58 ± 0.18 µM
IC50 (MDA-MB-231; MDA-MB-231, 72-hour incubation): 1.8 ± 0.3 µM
IC50 (MEF (C57BL/6); [1]): 6.1 ± 0.3 µM

CCn1c(=O)/c(=C2\Sc3cc(C)ccc3N2C)s/c1=C\c1scc[n+]1CCc1ccccc1C(F)(F)F [JG-378]
IC50 (MCF-7; MCF7): 0.13 ± 0.01 µM
IC50 (MDA-MB-231; MDA-MB-231, 72-hour incubation): 0.14 ± 0.02 µM
IC50 (MEF (C57BL/6); [1]): 0.87 ± 0.03 µM

CCn1c(=O)/c(=C2\Sc3cc(OC)ccc3N2C)s/c1=C\c1scc[n+]1Cc1ccccc1C(F)(F)F [JG-304]
IC50 (MCF-7; MCF7): 0.12 ± 0.01 µM
IC50 (MDA-MB-231; MDA-MB-231, 72-hour incubation): 0.1 ± 0.02 µM
IC50 (MEF (C57BL/6); [1]): 1.4 ± 0.06 µM

CCc1ccc2c(c1)S/C(=c1/s/c(=C\c3scc[n+]3Cc3ccccc3OC(F)(F)F)n(CC)c1=O)N2C [JG-297]
IC50 (MCF-7; MCF7): 0.08 ± 0.005 µM
IC50 (MDA-MB-231; MDA-MB-231, 72-hour incubation): 0.097 ± 0.006 µM
IC50 (MEF (C57BL/6); [1]): 0.41 ± 0.01 µM

CCn1c(=O)/c(=C2\Sc3cc(Br)ccc3N2C)s/c1=C\c1scc[n+]1C(C)c1ccccc1 (stereo not drawn) [JG-317]
IC50 (MCF-7; MCF7): 0.35 ± 0.08 µM
IC50 (MDA-MB-231; MDA-MB-231, 72-hour incubation): 0.14 ± 0.02 µM
IC50 (MEF (C57BL/6); [1]): 2.7 ± 0.1 µM

CCn1c(=O)/c(=C2\Sc3cc(Cl)ccc3N2C)s/c1=C\c1scc[n+]1Cc1ccccc1CO [JG-329]
IC50 (MCF-7; MCF7): 0.58 ± 0.1 µM
IC50 (MDA-MB-231; MDA-MB-231, 72-hour incubation): 0.39 ± 0.06 µM
IC50 (MEF (C57BL/6); [1]): 7.3 ± 2.1 µM

CCn1c(=O)/c(=C2\Sc3cc(Cl)ccc3N2C)s/c1=C\c1scc[n+]1Cc1nc(C)sc1C [JG-274]
IC50 (MCF-7; MCF7): 0.098 ± 0.008 µM
IC50 (MDA-MB-231; MDA-MB-231, 72-hour incubation): 0.08 ± 0.008 µM
IC50 (MEF (C57BL/6); [1]): 4.2 ± 0.4 µM

CCn1c(=O)/c(=C2\Sc3cc(Cl)ccc3N2C)s/c1=C\c1scc[n+]1Cc1occc1C(=O)OC [JG-265]
IC50 (MCF-7; MCF7, 72 h): 0.81 ± 0.09 µM
IC50 (MDA-MB-231; [3]): 0.13 ± 0.01 µM
IC50 (MEF (C57BL/6); [2]): 2.7 ± 0.1 µM

CCn1c(=O)/c(=C2\Sc3cc(OC)ccc3N2C)s/c1=C\c1scc[n+]1Cc1ccc(C(F)(F)F)o1 [JG-306]
IC50 (MCF-7; MCF7): 0.16 ± 0.02 µM
IC50 (MDA-MB-231; MDA-MB-231, 72-hour incubation): 0.1 ± 0.01 µM
IC50 (MEF (C57BL/6); [1]): > 10 µM
